Data: the supplement of paper PMC4932681

What was measured:
Test in all cases: viability inhibition at highest dose (% inhibition); higher = more growth inhibition
BT-474 Tam1 = details: 4-OH-tamoxifen in medium 1 µM; 72 h
Description: (§1)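 Percent inhibition of viability (CellTiter-Glo, 72 h) at the highest tested concentration (D5), normalised to DMSO (0%) and 100 µM benzethonium chloride (100%). Resistant lines and the 'in 1µM tamoxifen' arms were tested in 1 µM 4-OH-tamoxifen.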

BT-474 Tam2 = details: 4-OH-tamoxifen in medium 1 µM; 72 h
Description: as §1

MCF-7 = details: 72 h
Description: as §1

BT-474 = details: 72 h
Description: as §1

T-47D Tam1 = details: 4-OH-tamoxifen in medium 1 µM; 72 h
Description: as §1

ZR-75-1 Tam1 = details: 4-OH-tamoxifen in medium 1 µM; 72 h
Description: as §1

T-47D Tam2 = details: 4-OH-tamoxifen in medium 1 µM; 72 h
Description: as §1

MCF-7 Tam1 = details: 4-OH-tamoxifen in medium 1 µM; 72 h
Description: as §1

T-47D = details: 72 h
Description: as §1

ZR-75-1 = details: 72 h
Description: as §1

ZR-75-1 Tam2 = details: 4-OH-tamoxifen in medium 1 µM; 72 h
Description: as §1

SMILES | viability inhibition at highest dose (BT-474 Tam1) | viability inhibition at highest dose (BT-474 Tam2) | viability inhibition at highest dose (MCF-7; 4-OH-tamoxifen in medium 0 µM) | viability inhibition at highest dose (MCF-7; 4-OH-tamoxifen in medium 1 µM) | viability inhibition at highest dose (BT-474; 4-OH-tamoxifen in medium 0 µM) | viability inhibition at highest dose (BT-474; 4-OH-tamoxifen in medium 1 µM) | viability inhibition at highest dose (T-47D Tam1) | viability inhibition at highest dose (ZR-75-1 Tam1) | viability inhibition at highest dose (T-47D Tam2) | viability inhibition at highest dose (MCF-7 Tam1) | viability inhibition at highest dose (T-47D; 4-OH-tamoxifen in medium 0 µM) | viability inhibition at highest dose (T-47D; 4-OH-tamoxifen in medium 1 µM) | viability inhibition at highest dose (ZR-75-1; 4-OH-tamoxifen in medium 0 µM) | viability inhibition at highest dose (ZR-75-1; 4-OH-tamoxifen in medium 1 µM) | viability inhibition at highest dose (ZR-75-1 Tam2)
CCC/C=C/C=C/C(=O)O[C@H]1/C(=C/C(=O)OC)C[C@H]2C[C@H]([C@@H](C)O)OC(=O)C[C@H](O)C[C@@H]3C[C@H](OC(C)=O)C(C)(C)[C@](O)(C[C@@H]4C/C(=C/C(=O)OC)C[C@H](/C=C/C(C)(C)[C@]1(O)O2)O4)O3 [Bryostatin 1] (drug 100 nM) | -4.14 | -0.0992 | 3.91 | 14.2 | 0.0548 | -6.89 | 10.5 | 10.2 | -13.3 | 9.71 | -5.82 | -5.94 | 12.6 | -3.78 | 3.49
CC(C)(C)c1cc(NC(=O)Nc2ccc(-c3cn4c(n3)sc3cc(OCCN5CCOCC5)ccc34)cc2)no1 [Quizartinib (AC220)] (drug 1000 nM) | -3.77 | -5.01 | -2.81 | 6.24 | -0.626 | -13.2 | 11.5 | -2.41 | 15.8 | 3.09 | 11 | 9.31 | -17 | 8.56 | 5.08
CC[C@@]1(O)C(=O)OCc2c1cc1n(c2=O)Cc2cc3c(CN(C)C)c(O)ccc3nc2-1 [Topotecan] (drug 1000 nM) | 4.54 | 0.0411 | 11 | 23.7 | -20.8 | -23.9 | 46 | 40.6 | 27.9 | -1.83 | 52.2 | 5.37 | 49.4 | 38.6 | 48.3
C[C@]12CC[C@@H]3c4ccc(OC(=O)N(CCCl)CCCl)cc4CC[C@H]3[C@@H]1CC[C@@H]2O [Estramustine] (drug 990000 nM) | -8.94 | 1.08 | -17 | -12.1 | -9.96 | -0.556 | -1.27 | 0.469 | 4.35 | -4.18 | -27.1 | -3.37 | -4.2 | 3.75 | -3.72
C[C@]1(O)C[C@@H](c2nc(-c3ccc4ccc(-c5ccccc5)nc4c3)c3c(N)nccn32)C1 [Linsitinib (OSI-906)] (drug 10000 nM) | 3.26 | 7.88 | 52.5 | 62.4 | -2.14 | 21.6 | 84.2 | 12.2 | 29 | 38.1 | 28.3 | 33.2 | 14.6 | 20.1 | 16.3
Cc1cn(-c2cc(NC(=O)c3ccc(C)c(Nc4nccc(-c5cccnc5)n4)c3)cc(C(F)(F)F)c2)cn1 [Nilotinib] (drug 10000 nM) | 22.9 | 1.02 | 5.79 | 5.88 | -6.7 | 1.42 | -0.169 | 2.47 | 2.08 | -8.69 | -17.5 | -20.8 | -11.8 | -6.98 | -2.53
C[C@@H]1C=C2C(=O)O[C@@H]3CC[C@H](C1)[C@]23O [Galiellalactone] (drug 50000 nM) | 50.9 | 3.76 | 72.3 | 14.4 | -0.142 | 54.5 | 41.4 | 4.34 | 40.6 | -3.64 | 59.8 | 54.7 | -10.5 | -3.25 | 1.46
Cc1c2oc3c(C)ccc(C(=O)N[C@@H]4C(=O)N[C@H](C(C)C)C(=O)N5CCC[C@H]5C(=O)N(C)CC(=O)N(C)[C@@H](C(C)C)C(=O)O[C@@H]4C)c3nc-2c(C(=O)N[C@@H]2C(=O)N[C@H](C(C)C)C(=O)N3CCC[C@H]3C(=O)N(C)CC(=O)N(C)[C@@H](C(C)C)C(=O)O[C@@H]2C)c(N)c1=O [Dactinomycin] (drug 1000 nM) | 95.6 | 88.4 | 74.5 | 72.2 | 36.7 | 81.9 | 63.4 | 55.6 | 62.7 | 61.6 | 49.2 | 31.5 | 45.4 | 53.8 | 60.9
Cc1ccc(NC(=O)c2ccc(CN3CCN(C)CC3)cc2)cc1Nc1nc(-c2cccnc2)cs1 [Masitinib] (drug 10000 nM) | 93.1 | 87 | 39.5 | 40.7 | 21.2 | 71.6 | 34.5 | 18.2 | 40.7 | 26.5 | 42 | 57.1 | 9.35 | 20.3 | 32.8
C=C(c1ccc(C(=O)O)cc1)c1cc2c(cc1C)C(C)(C)CCC2(C)C [Bexarotene] (drug 10000 nM) | -1.85 | 0.869 | -1.91 | 5.85 | 1.74 | 20.9 | 25.9 | -2.13 | 9.65 | 19.2 | 13.7 | 14.2 | 15.4 | 8.83 | 9.24
Clc1ccc(C(c2ccccc2Cl)C(Cl)Cl)cc1 (stereo not given) [Mitotane] (drug 10000 nM) | 4.23 | 3.56 | -8.27 | 0.312 | -9.37 | -3.54 | 8.29 | 1.3 | 8.17 | -2.99 | -16.5 | -15.2 | -16.5 | -2.85 | -0.971
CC(C)n1cnc2c(NCCc3ccc(O)cc3)nc(-c3csc4ccccc34)nc21 [StemRegenin 1] (drug 10000 nM) | 95.2 | 89 | 51.4 | 65.3 | 25.1 | 96.4 | 41.9 | 19.8 | 54.1 | 18.6 | 35.4 | 50.4 | 8.1 | 26.6 | 24.2
C[C@]1(c2nc3c(C(N)=O)cccc3[nH]2)CCCN1 [Veliparib  (ABT-888)] (drug 10000 nM) | 6.83 | -7.23 | 8.41 | -2.66 | -7.48 | 9.81 | 2.73 | 2.16 | 6.94 | -2.94 | -14.2 | -15.3 | -8.51 | 2.27 | 6.18
COc1ccc(S(=O)(=O)Nc2cccnc2Nc2ccc(O)cc2)cc1 [ABT-751] (drug 10000 nM) | 64.7 | 54.2 | 50.3 | 44.6 | 42.6 | 73.1 | 58.6 | 4.33 | 38.3 | 1.63 | -0.891 | 2.69 | 36.3 | 14.9 | 18.6
COc1ncc(-c2ccc3nccc(-c4ccnnc4)c3c2)cc1NS(=O)(=O)c1ccc(F)cc1F (drug 1000 nM) | 98.5 | 98 | 68.6 | 85 | 90 | 97.1 | 69.3 | 83 | 78 | 60.1 | 71.6 | 77.9 | 76.9 | 72.3 | 86.4
Oc1nc(-c2ccc(C(F)(F)F)cc2)nc2c1CSCC2 [XAV-939] (drug 10000 nM) | 9.15 | 10.1 | 7.77 | 11.1 | 2.3 | -20.3 | 22.1 | 3.25 | -6.24 | -5.47 | -0.891 | 1.95 | 5.02 | 3.5 | 12.7
CC(C)c1c(C(=O)Nc2ccccc2)c(-c2ccccc2)c(-c2ccc(F)cc2)n1CC[C@@H](O)C[C@@H](O)CC(=O)O [Atorvastatin] (drug 10000 nM) | 12.4 | 28.2 | 23.9 | 19.8 | 13.8 | 7.75 | 29.2 | 44.5 | 18.7 | 13.7 | 35.6 | 36.5 | 48.4 | 36.5 | 39.9
O=C(O)CC[C@H]1CC[C@@](c2cc(F)ccc2F)(S(=O)(=O)c2ccc(Cl)cc2)CC1 [MK-0752] (drug 1000 nM) | -7.32 | 2.64 | -24.6 | 1.59 | -9.96 | -12.2 | 2.67 | -3.02 | 4.08 | -0.531 | -16.2 | -1.71 | -11.9 | -13.3 | -2.73
COCC[n+]1c2c(n(Cc3cnccn3)c1C)C(=O)c1ccccc1C2=O [YM155] (drug 10000 nM) | 99.4 | 98.6 | 99.8 | 99.1 | 99 | 100 | 96.1 | 99.6 | 94.1 | 98.9 | 98.1 | 98.6 | 96 | 98 | 95.8
Clc1ccc(Nc2nnc(Cc3ccncc3)c3ccccc23)cc1 [Vatalanib] (drug 10000 nM) | 10.7 | 10.3 | -22.9 | 8.24 | -9.23 | 0.775 | 26.3 | -0.807 | 7.23 | -1.69 | -9.2 | -8.84 | -6.3 | -2.47 | 6.59
COC1=C2C[C@@H](C)C[C@H](OC)[C@H](O)[C@@H](C)/C=C(\C)[C@H](OC(N)=O)[C@@H](OC)/C=C\C=C(/C)C(=O)NC(=CC1=O)C2=O [Geldanamycin] (drug 10000 nM) | 83.6 | 82.1 | 85.8 | 78.5 | 67.6 | 69.7 | 82.4 | 69 | 67.1 | 58.9 | 73.3 | 74.9 | 62 | 80.5 | 66.7
COc1cc2ncnc(Nc3ccc(F)c(Cl)c3)c2cc1OCCCN1CCOCC1 [Gefitinib] (drug 10000 nM) | 97.7 | 96.8 | 28 | 35.6 | 86.4 | 96.6 | 34.2 | 22.2 | 47.3 | 14.2 | 12.1 | 8.3 | 13.1 | 27.5 | 18.6
COc1cc2c(cc1O)CC[C@@H]1[C@@H]2CC[C@]2(C)[C@@H](O)CC[C@@H]12 [2-methoxyestradiol  (Panzem)] (drug 10000 nM) | 27.1 | 24.3 | 24.8 | 17.7 | 48.9 | 63.3 | 24.5 | 6.41 | 29.8 | -11.2 | 32.6 | -2.41 | 36.8 | 2.3 | 3.21
Cn1cnc2c(F)c(Nc3ccc(Br)cc3Cl)c(C(=O)NOCCO)cc21 [Selumetinib  (AZD6244)] (drug 10000 nM) | 21.1 | -2.62 | 13.7 | 16.6 | -0.443 | 29.7 | 19.9 | 2.2 | 10.8 | 11.7 | -3.23 | -12.3 | -8.87 | -4.69 | 3.53
Nc1ccn([C@@H]2O[C@H](CO)[C@@H](O)[C@@H]2O)c(=O)n1 [Cytarabine] (drug 10000 nM) | 22.1 | 1.43 | 29.1 | 12 | -5.7 | 11 | 30.6 | 28.3 | -16.3 | 6.46 | 36.9 | 6.47 | 39.3 | 13 | 27.4
COc1cc(OC2CCN(C)CC2)ccc1Nc1ncc2c(n1)n(C1CCCC1)c(=O)n2C [AZ 3146] (drug 10000 nM) | 74.5 | 25.9 | 24.5 | 15 | 9.21 | 77.2 | 20.1 | 19.6 | 26.5 | 11.7 | 27.1 | 14.1 | 20.8 | 22.9 | 24
